Blank lines part the entries; values can stand above or below the molecule they belong to.
Experiments:
CXCR4 D97N [1] = assay: 12G5 antibody competition, 293T cells transfected with CXCR4 D97N; format: binding, human; conditions: IC50 on CXCR4 D97N relative to wt
Method: (§1) Fig. 4 The interactions of EPI-X4 and the EPI-X4 derivatives WSC02 and JM#21 with point-mutated CXCR4 were assessed by an antibody competition assay. Amino acid substitutions were introduced in the sequence of CXCR4 by site-directed mutagenesis, cloned into an IRES-eGFP expression vector, and transfected into 293 T cells. Afterward, cells were incubated with serially diluted EPI-X4 (a, b), WSC02 (c, d), or JM#21 (e, f) in presence of a constant concentration of CXCR4 specific antibody (clone 12G5). After 2 h, bound antibody was analyzed by flow cytometry. a, c, e) Representative dose-dependent replacement of 12G5 antibody by peptides. b, d, f) IC50 values were calculated by nonlinear regression. Shown are data derived from at least three individual experiments ± SEM. IC50 values were set to 1000 µM (EPI-X4 and WSC02) or 100 µM (JM#21) if the value exceeds the maximally used concentration. *p ≤ 0.05, ***p ≤ 0.001 (one-way ANOVA for comparison with wt). For IC50 values see Table 1. For all binding curves see also Fig. S8.
(§2) Mutated CXCR4 constructs were transfected into 293 T cells that have a very low endogenous expression level of wild-type CXCR4. Transfected cells were then analyzed for CXCR4 surface expression (Fig. S5a) and EPI-X4 binding using a flow cytometry-based antibody competition assay (Fig. S5b, c)[33]. […]

CXCR4 V112L = assay: 12G5 antibody competition, 293T cells transfected with CXCR4 V112L; format: binding, human; conditions: IC50 on CXCR4 V112L relative to wt
Method: as §1, §2

CXCR4 V112A + L41A = assay: 12G5 antibody competition, 293T cells transfected with CXCR4 V112A + L41A; format: binding, human; conditions: IC50 on CXCR4 V112A + L41A relative to wt
Method: as §1, §2

CXCR4 D97N [2] = target: T1, CXCR4 D97N (human, UniProt P61073-1 1-352, D97N); assay: flow cytometry on cells; 12G5 antibody competition on 293T cells transiently transfected with CXCR4 wt or mutants (IRES-eGFP vector), eGFP-positive cells gated; serially diluted peptide with a constant concentration of CXCR4 antibody clone 12G5, 2 h; bound antibody read; IC50 by nonlinear regression; conditions: one partner purified
T1 construct: human CXCR4, isoform 1 or b; source: 293T cells, transiently transfected (pcDNA3.1 CXCR4-IRES-eGFP), on cells

CXCR4 V112A = target: T2, CXCR4 V112A (human, UniProt P61073-1 1-352, V112A); assay: as above; conditions: one partner purified
T2 construct: human CXCR4, isoform 1 or b; source: 293T cells, transiently transfected (pcDNA3.1 CXCR4-IRES-eGFP), on cells
T2 sequence (P61073 whole entry V112A, canonical isoform): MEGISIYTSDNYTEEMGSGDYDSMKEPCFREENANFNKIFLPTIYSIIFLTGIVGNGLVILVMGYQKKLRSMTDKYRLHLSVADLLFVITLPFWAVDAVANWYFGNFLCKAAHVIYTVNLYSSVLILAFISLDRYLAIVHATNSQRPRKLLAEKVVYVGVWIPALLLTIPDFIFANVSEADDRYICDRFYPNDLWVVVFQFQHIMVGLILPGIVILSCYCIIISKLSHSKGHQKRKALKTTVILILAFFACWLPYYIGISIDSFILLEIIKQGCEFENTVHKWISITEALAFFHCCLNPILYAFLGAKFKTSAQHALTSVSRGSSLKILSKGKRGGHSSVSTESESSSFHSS

T1 sequence (P61073 whole entry D97N, canonical isoform): as the sequence (P61073 whole entry V112A, canonical isoform) above, with D97N, A112V counted along it

Molecule: IVRWSKKVPCVS [WSC02, first-generation C-terminally truncated 12-mer derivative of EPI-X4 with four substitutions]
Fold change (CXCR4 D97N [1]): 466
Fold change (CXCR4 V112L): 0.4
Fold change (CXCR4 V112A + L41A): 4

IC50 (CXCR4 D97N [2]): > 1000 µM
IC50 (CXCR4 V112A): 11 µM
B1: EPI-X4 (Alb408-423) (peptide)
peptide: LVRYTKKVPQVSTPTL
notes: source: synthetic peptide (Fmoc solid-phase synthesis, HPLC-purified)

Reference: publication PMC8458281, “Computational modeling and experimental validation of the EPI-X4/CXCR4 complex allows rational design of small peptide antagonists” (Communications Biology, 2021)
